Measured values as given in patent EP0374249A1, “METHOD OF STERILIZING PLANT POLLEN” (VSESOJUZNY NAUCHNO-ISSLEDOVATELSKY INST. SELSKOKHOZYAISTV. …, priority 1988, dated 1989).

Test system: Sonneblume Sorte Peredovik
Assay: Field test of pollen sterilisation, sunflower variety Peredovik
Type: in vivo, Sonnenblume
Conditions: period V, 0.5% emulsion; for Prozentsatz der Sterilität: 3 kg/ha (N-Karbamoylmaleaminsäure) or 0.1% emulsion, 1 kg/ha (N-(3-Dimethylaminopropyl)-maleaminsäure); for Ansetzen von Ächänen bei freier Bestäubung in %: 3 kg/ha or 0.1% emulsion, 1 kg/ha, free pollination
Excerpt: Die gametozide Aktivität der erfindungsgemässen Sterilisationsmittel war im Feldversuch in verschiedenen Bodenklimatischen Zonen mit Teilstücken von 10 m^2 Grösse in drei- bis viermaliger Wiederholung nachgewiesen. Jedes Sterilisationsmittel wurde mindestens 5 Jahre lang geprüft.
Die Entwicklung der Perioden der Organogenese wird zytologischüberwacht. Die Behandlung von Pflanzen mit dem Sterilisationsmittel erfolgt am Anfang der fünften Periode der Organogenese nach Kupermann.
Zur Kontrolle der chemischen Sterilisation des Sonnenblumenpollens werden für jede Verbindung 45 behandelte Pflanzen jeder Wiederholung benutzt, wobei 15 Pflanzen von denen zwecks Selbstbestäurun^g des Blütenkörbchens isoliert werden, 15 andere Pflanzen mit einem Pollengemisch, gesammelt von 20 bis 25 behandelten isolierten Körbchen, bestäubt werden und 15 Pflanzen für freie Bestäubeung gelassen werden, damit das Ansetzen von Ächänen mit dem Pollen der Vaterform kontrolliert werden kann.
Man beurteilt die Pollensterilität von Pflanzen der Sonnenblume nach der Pollenfertilität und -keimfähigkeit, nach den morphologischen Besonderheiten von Spermien und nach der Fähigkeit von Achänen zum Ansetzen bei der Bestäubung der behandelten isolierten Pflanzen mit dem Pollen der unbehandelten väterlichen Form. Die Lebensfähigkeit der Eizelle wird nach der Samenbildung von behandelten Pflanzen bei freier Bestäubung der väterlichen Form ermittelt.
Pflanzen der Sonneblume Sorte Peredovik und Linie BK-119 werden in der V. Periode der Organogenese (nach Kupermann) mit einer 0,5%igen wässrigen Emulsion der N-Karbamoylmaleaminsäure behandelt. Die Emulsion enthält 0,01 Masse% Dimethylsulfoxid und 0,1 Masse% Kalziumalkylbenzolsulfonat mit 12 bis 14 Kohlenstoffatomen. Der Verbrauch an Präparat beträgt 3 kg/ha. Die gleichen Pflanzen werden mit einer 0,1masseprozentigen wässrigen Emulsion der N-(3-Dimethylaminopropyl)-maleaminsäure behandelt. Im letzten Falle enthält die Emulsion 0,01 Masse% Dodezylsulfat und 0,1 Masse% Kalziumalkylbenolsulfonat mit 12 bis 14 Kohlensotffatomen. Der Verbrauch an Präparat beträgt 1 kg/ha. Als Kontrolle dienen Pflanzen, behandelt mit einem Verdünner.ohne Sterilisationsmittel. Die Prufergenisse sind in der Tabelle 14 dargestellt. […] Periode der Organogenese erhalten.

Row | SMILES | Prozentsatz der Sterilität | Ansetzen von Ächänen bei freier Bestäubung in %
1 | NC(=O)NC(=O)/C=C\C(=O)O [Beispiel 59, N-Karbamoylmaleaminsäure] | 100,0% | 81,7%
2 | CN(C)CCCNC(=O)/C=C\C(=O)O [Beispiel 60, N-(3-Dimethylaminopropyl)-maleaminsäure] | 100,0% | 84,9%
